Measurements as given in ChEMBL document CHEMBL1201862, “PubChem BioAssay data set” (2004).
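Compound exposure: 48 hours, 5 concentrations, 96-well plates. GI50 is the concentration that inhibits growth by half.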 Activity calls are given as the source filed them. Rule as the data show it: active = GI50 up to about 1.1 µM and inactive = higher.

Experiments:
Test in all cases: growth of human tumour cells (NCI), 48 h
[1] = tested on: MDA-MB-435
[2] = tested on: COLO 205
[3] = tested on: MDA-MB-231
[4] = tested on: PC-3
[5] = tested on: A549
[6] = tested on: SN12C
[7] = tested on: SNB-19
[8] = tested on: OVCAR-8
[9] = tested on: IGROV-1
[10] = tested on: CAKI-1
[11] = tested on: SF-295
[12] = tested on: SF-539
[13] = tested on: ACHN
[14] = tested on: HCT-15
[15] = tested on: CCRF-CEM
[16] = tested on: DU-145
[17] = tested on: EKVX
[18] = tested on: LOX IMVI
[19] = tested on: HCC 2998
[20] = tested on: 786-0
[21] = tested on: HCT-116
[22] = tested on: NCI-H460
[23] = tested on: SR
[24] = tested on: T47D
[25] = tested on: BT-549
[26] = tested on: NCI-H23
[27] = tested on: KM12
[28] = tested on: SK-OV-3
[29] = tested on: SK-MEL-28
[30] = tested on: MDA-N
[31] = tested on: K562
[32] = tested on: HL-60
[33] = tested on: HOP-62
[34] = tested on: MOLT-4
[35] = tested on: MCF7
[36] = tested on: Malme-3M
[37] = tested on: Hs-578T
[38] = tested on: M14
[39] = tested on: NCI-H226
[40] = tested on: HT-29
[41] = tested on: SNB-75
[42] = tested on: UACC-257
[43] = tested on: SF-268
[44] = tested on: A498
[45] = tested on: SW-620
[46] = tested on: TK-10
[47] = tested on: UACC-62
[48] = tested on: RPMI-8226
[49] = tested on: UO-31
[50] = tested on: NCI-H522
[51] = tested on: SK-MEL-5
[52] = tested on: OVCAR-4
[53] = tested on: OVCAR-3
[54] = tested on: SK-MEL-2
[55] = tested on: HOP-92
[56] = tested on: NCI/ADR-RES
[57] = tested on: RXF 393
[58] = tested on: U-251
[59] = tested on: OVCAR-5

## C=CCOCn1ccc(NC(=O)c2ccccc2)nc1=O
[1]
  GI50: > 100 µM (inactive)
[2]
  GI50: > 100 µM (inactive)
[3]
  GI50: > 100 µM (inactive)
[4]
  GI50: > 100 µM (inactive)
[5]
  GI50: > 100 µM (inactive)
[6]
  GI50: > 100 µM (inactive)
[7]
  GI50: > 100 µM (inactive)
[8]
  GI50: > 100 µM (inactive)
[9]
  GI50: > 100 µM (inactive)
[10]
  GI50: > 100 µM (inactive)
[11]
  GI50: > 100 µM (inactive)
[12]
  GI50: > 100 µM (inactive)
[13]
  GI50: > 100 µM (inactive)
[14]
  GI50: > 100 µM
[15]
  GI50: > 100 µM (inactive)
[16]
  GI50: > 100 µM (inactive)
[17]
  GI50: > 100 µM (inactive)
[18]
  GI50: > 100 µM (inactive)
[19]
  GI50: > 100 µM (inactive)
[20]
  GI50: > 100 µM (inactive)
[21]
  GI50: > 100 µM (inactive)
[22]
  GI50: > 100 µM (inactive)
[23]
  GI50: > 100 µM (inactive)
[24]
  GI50: > 100 µM (inactive)
[25]
  GI50: > 100 µM (inactive)
[26]
  GI50: > 100 µM (inactive)
[27]
  GI50: > 100 µM (inactive)
[28]
  GI50: > 100 µM (inactive)
[29]
  GI50: > 100 µM (inactive)
[30]
  GI50: > 100 µM (inactive)
[31]
  GI50: > 100 µM (inactive)
[32]
  GI50: > 100 µM (inactive)
[33]
  GI50: > 100 µM (inactive)
[34]
  GI50: > 100 µM (inactive)
[35]
  GI50: > 100 µM (inactive)
[36]
  GI50: > 100 µM (inactive)
[37]
  GI50: > 100 µM (inactive)
[38]
  GI50: > 100 µM (inactive)
[39]
  GI50: > 100 µM (inactive)
[40]
  GI50: > 100 µM (inactive)
[41]
  GI50: > 100 µM (inactive)
[42]
  GI50: > 100 µM (inactive)
[43]
  GI50: > 100 µM (inactive)
[44]
  GI50: > 100 µM (inactive)
[45]
  GI50: > 100 µM (inactive)
[46]
  GI50: > 100 µM (inactive)
[47]
  GI50: > 100 µM (inactive)
[48]
  GI50: > 100 µM (inactive)
[49]
  GI50: > 100 µM (inactive)
[50]
  GI50: > 100 µM (inactive)
[51]
  GI50: > 100 µM (inactive)

## Cc1ccc(/N=N/c2c(O)ccc3cc(S(=O)(=O)O)ccc23)cc1
[1]
  GI50: > 100 µM (inactive)
[2]
  GI50: 73.5 µM (inactive)
[52]
  GI50: > 100 µM (inactive)
[3]
  GI50: 18.8 µM (inactive)
[4]
  GI50: > 100 µM (inactive)
[5]
  GI50: > 100 µM (inactive)
[6]
  GI50: > 100 µM (inactive)
[7]
  GI50: > 100 µM (inactive)
[53]
  GI50: > 100 µM (inactive)
[8]
  GI50: > 100 µM (inactive)
[9]
  GI50: 64.3 µM (inactive)
[10]
  GI50: 23.9 µM (inactive)
[11]
  GI50: > 100 µM (inactive)
[13]
  GI50: > 100 µM (inactive)
[14]
  GI50: > 100 µM
[15]
  GI50: > 100 µM (inactive)
[16]
  GI50: > 100 µM (inactive)
[17]
  GI50: 29.6 µM (inactive)
[18]
  GI50: 18.2 µM (inactive)
[20]
  GI50: 12.6 µM (inactive)
[21]
  GI50: 24.2 µM (inactive)
[24]
  GI50: 66.8 µM (inactive)
[54]
  GI50: > 100 µM (inactive)
[25]
  GI50: > 100 µM (inactive)
[26]
  GI50: > 100 µM (inactive)
[27]
  GI50: 74.6 µM (inactive)
[28]
  GI50: > 100 µM (inactive)
[29]
  GI50: > 100 µM (inactive)
[30]
  GI50: > 100 µM (inactive)
[55]
  GI50: > 100 µM (inactive)
[31]
  GI50: > 100 µM (inactive)
[33]
  GI50: > 100 µM (inactive)
[34]
  GI50: > 100 µM (inactive)
[56]
  GI50: > 100 µM (inactive)
[36]
  GI50: > 100 µM (inactive)
[57]
  GI50: > 100 µM (inactive)
[37]
  GI50: > 100 µM (inactive)
[38]
  GI50: > 100 µM (inactive)
[39]
  GI50: > 100 µM (inactive)
[40]
  GI50: > 100 µM (inactive)
[41]
  GI50: 34.8 µM (inactive)
[42]
  GI50: > 100 µM (inactive)
[43]
  GI50: 85.5 µM (inactive)
[45]
  GI50: > 100 µM (inactive)
[46]
  GI50: > 100 µM (inactive)
[47]
  GI50: > 100 µM (inactive)
[58]
  GI50: > 100 µM (inactive)
[48]
  GI50: > 100 µM (inactive)
[49]
  GI50: > 100 µM (inactive)
[50]
  GI50: > 100 µM (inactive)
[59]
  GI50: > 100 µM (inactive)
[51]
  GI50: > 100 µM (inactive)

## CCC(C)NC1=NCC(C)S1 (configuration not stated)
[1]
  GI50: > 100 µM (inactive)
[2]
  GI50: > 100 µM (inactive)
[3]
  GI50: > 100 µM (inactive)
[4]
  GI50: > 100 µM (inactive)
[5]
  GI50: > 100 µM (inactive)
[6]
  GI50: > 100 µM (inactive)
[7]
  GI50: > 100 µM (inactive)
[53]
  GI50: > 100 µM (inactive)
[9]
  GI50: > 100 µM (inactive)
[10]
  GI50: > 100 µM (inactive)
[11]
  GI50: > 100 µM (inactive)
[12]
  GI50: > 100 µM (inactive)
[13]
  GI50: > 100 µM (inactive)
[14]
  GI50: > 100 µM
[15]
  GI50: > 100 µM (inactive)
[16]
  GI50: > 100 µM (inactive)
[17]
  GI50: > 100 µM (inactive)
[18]
  GI50: > 100 µM (inactive)
[19]
  GI50: > 100 µM (inactive)
[21]
  GI50: > 100 µM (inactive)
[22]
  GI50: > 100 µM (inactive)
[23]
  GI50: > 100 µM (inactive)
[24]
  GI50: > 100 µM (inactive)
[54]
  GI50: > 100 µM (inactive)
[25]
  GI50: > 100 µM (inactive)
[26]
  GI50: > 100 µM (inactive)
[27]
  GI50: > 100 µM (inactive)
[28]
  GI50: > 100 µM (inactive)
[29]
  GI50: > 100 µM (inactive)
[30]
  GI50: > 100 µM (inactive)
[55]
  GI50: > 100 µM (inactive)
[31]
  GI50: > 100 µM (inactive)
[32]
  GI50: > 100 µM (inactive)
[33]
  GI50: > 100 µM (inactive)
[34]
  GI50: > 100 µM (inactive)
[35]
  GI50: > 100 µM (inactive)
[36]
  GI50: > 100 µM (inactive)
[57]
  GI50: 28.3 µM (inactive)
[37]
  GI50: > 100 µM (inactive)
[38]
  GI50: > 100 µM (inactive)
[39]
  GI50: > 100 µM (inactive)
[40]
  GI50: > 100 µM (inactive)
[41]
  GI50: > 100 µM (inactive)
[42]
  GI50: > 100 µM (inactive)
[43]
  GI50: > 100 µM (inactive)
[44]
  GI50: > 100 µM (inactive)
[45]
  GI50: > 100 µM (inactive)
[47]
  GI50: > 100 µM (inactive)
[58]
  GI50: > 100 µM (inactive)
[48]
  GI50: > 100 µM (inactive)
[49]
  GI50: > 100 µM (inactive)
[50]
  GI50: > 100 µM (inactive)
[59]
  GI50: > 100 µM (inactive)
[51]
  GI50: > 100 µM (inactive)
